# Measured values as given in patent publication US10046050B2, “Targeting immunotherapy for amyloidosis” (UNIVERSITY OF TENNESSEE RESEARCH FOUNDATION, priority 2014, dated 2018).
# How the values were obtained:
# mAb 7D8 = assay: ELISA binding of 7D8 to peptopes dried on microplates; conditions: both assays
# Method: Peptides (p75-78 and control reagents; peptide 39 [CGGHEDT] (SEQ ID NO: 54), peptide 41 [CGGHEDTMADQE] (SEQ ID NO: 55) and peptide p5 (SEQ ID NO: 1), were prepared at 1 μg/ml in PBS and 50 μl was added to each well of 1 96-well microplate (Costar EIA/RIA high binding). The peptides were dried onto the well at 37° C. overnight. Sample wells were blocked for 1 h by addition of 200 μL of 1% BSA in PBS. Primary antibodies (7D8 or biotinylated 7D8) and secondary antibodies (biotinylated goat anti mouse) were added in 100 μL of a diluent of 1% BSA and 0.05% tween 20 in PBS. The 7D8 primary antibody was tested with a 1:2 dilution series beginning at 50 nM. A 1/3000 dilution of the secondary biotinylated goat anti-mouse IgG antibody (Sigma) was added for 1 h and the microplate washed. When the biotinylated 7D8 mAb was used the secondary antibody step was omitted. Binding was visualized by addition of a 1/1000 dilution of europium/streptavidin (Perkin Elmer) for 1 h and developed with enhancement solution (Perkin Elmer) before quantifying the signal using a time-resolved fluorescence plate reader (Wallac).
# human Tal ALκ amyloid = assay: Immunohistochemistry of biotinyl-7D8 on formalin-fixed tissue sections; format: binding; conditions: kidney, label = pre-treatment peptide, or 7D8 alone
# Method: (§1) The binding of biotinylated 7D8 mAb with autopsy-derived, formalin-fixed, paraffin-embedded tissue sections containing, ATTR, ALκ or ALλ was assessed immunohistochemically. Consecutive tissue sections were stained with: Congo red; biotinylated 7D8 alone; 7D8 with the control peptide p5; or, 7D8 mAb with peptope p75 pretreatment. Briefly, six μm-thick tissue sections were subjected to antigen retrieval by incubation in CitraPlus solution (BioGenex, San Ramon, Calif.) for 30 min at 90° C. Unlabeled peptope p75 was added to the tissue at ˜3 μg/mL and incubated overnight at 4° C. Unbound reagent was removed by washing in PBST for 30 min. Tissues sections (with or without peptope pretreatment) were immunostained by addition of 3 μg/mL biotinylated 7D8 mAb. Slides were developed by addition of streptavidin-HRP (Vectastain Elite ABC kit, Vector Labs) followed by 3,3′-diaminobezidene (Vector Labs) and examined using a Leica DM500 microscope.
# human ATTR amyloid = assay: as above; format: binding; conditions: label = pre-treatment peptide, or 7D8 alone
# Method: as §1
# human Den ALλ amyloid = assay: as above; format: binding; conditions: thyroid, label = pre-treatment peptide, or 7D8 alone
# Method: as §1
substance,measurement,setting,value
KAQKAQAKQAKQAQKAQKAQAKQAKQ (KAQKAQAKQAKQAQKAQKAQAKQAKQ; Peptide p5),binding of 7D8 and biotinyl-7D8,mAb 7D8,no binding
same,immunohistochemical staining with biotinyl-7D8,human Tal ALκ amyloid,inhibited this effect
same,immunohistochemical staining with biotinyl-7D8,"human ATTR amyloid; Gre ATTR, esophagus",decreased
same,immunohistochemical staining with biotinyl-7D8,"human ATTR amyloid; Gre ATTR, heart",partially inhibited
same,immunohistochemical staining with biotinyl-7D8,"human ATTR amyloid; Ken ATTR, heart",background 7D8 staining was diminished
same,immunohistochemical staining with biotinyl-7D8,"human ATTR amyloid; Sno ATTR, heart",background 7D8 staining was diminished
same,immunohistochemical staining with biotinyl-7D8,human Den ALλ amyloid,inhibited this effect
